Data reported in patent US12692244B2, “Griseofulvin 4 position etherified derivatives and their application” (Yan'an University, priority 2023, dated 2026).
Converted amounts (≈) assume the structure as drawn.

Assays:
Assay in all cases: Antifungal activity assay, mycelial growth inhibitory rate method
Format in all cases: cell-based
Botrytis cinerea Pers. = conditions: for inhibition of growth at 100 µg/mL: 100 μg/mL in PDA medium, 28° C., 48-72 h, read-out: Average values of antifungal rate (%) B.c.; for IC50: mycelial growth, PDA medium, 100-0.0488 μg/mL
Protocol: (§1) The antifungal activities were evaluated against seven plant phytopathogenic fungi, by the mycelial growth inhibitory rate method, according to a reported method (Yu-Bin Bai, Meng Zhang, Ding Li, Yu Zhao, Liang-Zhu Huang, and Jin-Ming Gao. J. Agric. Food. Chem., 2023, 71, 16, 6236-6248). The target phytopathogenic fungi are Cytospora sp., Alternaria solani Sorauer, Alternaria alternate, Botrytis sp., Botrytis cinerea Pers., Colletotrichum gloeosporioides and Botryosphaeria dothidea. 100 μg/mL PDA mediums were prepared at 50° C. The petri dishes were incubated and cultivated at 28° C. for 48-72 h. Each sample was measured in triplicate, each colony diameter of all triplicates was measured 4 times by cross bracketing method. Hymexazol (Hym) as the positive control and the result of inhibition rate was calculated according to the formula: [formula] • where C represents the diameter of fungal growth on untreated PDA, and T represents the diameter of fungal growth on treated PDA. […] PDA mediums with different compound concentrations (100, 50, 25, 12.5, 6.25, 3.125, 1.5625, 0.78125, 0.3906, 0.1953, 0.0977, 0.0488 μg/mL) was prepared and their half inhibitory concentration (IC50) values were accurately tested. All half inhibitory concentration results are shown in Table 2 and Hymexazol (Hym) as the positive control.

Alternaria alternate = conditions: for inhibition of growth at 100 µg/mL: 100 μg/mL in PDA medium, 28° C., 48-72 h; for IC50: mycelial growth, PDA medium, 100-0.0488 μg/mL
Protocol: as §1

Botryosphaeria dothidea = conditions: for inhibition of growth at 100 µg/mL: 100 μg/mL in PDA medium, 28° C., 48-72 h, read-out: Average values of antifungal rate (%) B.d.; for IC50: mycelial growth, PDA medium, 100-0.0488 μg/mL
Protocol: as §1

[1] = tested on: Colletotrichum gloeosporioides; conditions: for inhibition of growth at 100 µg/mL: 100 μg/mL in PDA medium, 28° C., 48-72 h, read-out: Average values of antifungal rate (%) C.g.; for IC50: mycelial growth, PDA medium, 100-0.0488 μg/mL
Protocol: as §1

Cytospora sp. = conditions: for inhibition of growth at 100 µg/mL: 100 μg/mL in PDA medium, 28° C., 48-72 h, read-out: Average values of antifungal rate (%) C.s.; for IC50: mycelial growth, PDA medium, 100-0.0488 μg/mL
Protocol: as §1

[2] = tested on: Alternaria solani Sorauer; conditions: for inhibition of growth at 100 µg/mL: 100 μg/mL in PDA medium, 28° C., 48-72 h, read-out: Average values of antifungal rate (%) A.s.; for IC50: mycelial growth, PDA medium, 100-0.0488 μg/mL
Protocol: as §1

Botrytis sp. = conditions: for inhibition of growth at 100 µg/mL: 100 μg/mL in PDA medium, 28° C., 48-72 h, read-out: Average values of antifungal rate (%) B.s.; for IC50: mycelial growth, PDA medium, 100-0.0488 μg/mL
Protocol: as §1

Compound | inhibition of growth at 100 µg/mL (Botrytis cinerea Pers.) | IC50 (Botrytis cinerea Pers.) | inhibition of growth at 100 µg/mL (Alternaria alternate) | IC50 (Alternaria alternate) | inhibition of growth at 100 µg/mL (Botryosphaeria dothidea) | IC50 (Botryosphaeria dothidea) | inhibition of growth at 100 µg/mL [1] | IC50 [1] | inhibition of growth at 100 µg/mL (Cytospora sp.) | IC50 (Cytospora sp.) | inhibition of growth at 100 µg/mL [2] | IC50 [2] | inhibition of growth at 100 µg/mL (Botrytis sp.) | IC50 (Botrytis sp.)
C#CCOc1cc(OC)c(Cl)c2c1C(=O)[C@@]1(O2)C(OC)=CC(=O)C[C@H]1C [Compound 01, 4 Position Propargyl Griseofulvin Derivative] | 98.6% | 2.04 ± 0.12 µg/mL (≈ 5.41 µM) | 97.4% | 1.28 µg/mL (≈ 3.4 µM) | 98% | 1.35 ± 0.07 µg/mL (≈ 3.58 µM) | 91.3% | 0.06 ± 0.02 µg/mL (≈ 0.159 µM) | 96.6% | 1.84 ± 0.01 µg/mL (≈ 4.88 µM) | 100% | 1.32 ± 0.01 µg/mL (≈ 3.5 µM) | 100% | 2.84 ± 0.22 µg/mL (≈ 7.54 µM)
COC1=CC(=O)C[C@@H](C)[C@]12Oc1c(Cl)c(OC)cc(OC3CCCC3)c1C2=O [Compound 09, 4 Position Cyclopentyl Griseofulvin Derivative] | 59.7% | > 25 µg/mL | 31% | > 100 µg/mL | 34.2% | > 100 µg/mL | 40.9% | > 100 µg/mL | 59.5% | > 25 µg/mL | 45.9% | > 100 µg/mL | 63.1% | > 25 µg/mL
COCOc1cc(OC)c(Cl)c2c1C(=O)[C@@]1(O2)C(OC)=CC(=O)C[C@H]1C [Compound 05, 4 Position Methoxymethyl Griseofulvin Derivative] | 66% | > 25 µg/mL | 49.1% | > 50 µg/mL | 58.4% | > 25 µg/mL | 71.7% | 16.1 ± 1.3 µg/mL (≈ 42.2 µM) | 73.7% | 81.4 ± 1.23 µg/mL (≈ 213 µM) | 75.4% | 83.2 ± 14.5 µg/mL (≈ 217 µM) | 88.6% | 31.6 ± 7.3 µg/mL (≈ 82.4 µM)
Cc1cc(O)no1 [Hym, Hymexazol, reference compound] | 100% | > 6.25 µg/mL | 92.6% | 15.58 ± 0.13 µg/mL (≈ 157 µM) | 55.6% | > 50 µg/mL | 43.2% | > 100 µg/mL | 48% | > 100 µg/mL | 97.4% | 45.3 ± 14 µg/mL (≈ 457 µM) | 92.5% | 13.5 ± 1.89 µg/mL (≈ 136 µM)
CCCCOc1cc(OC)c(Cl)c2c1C(=O)[C@@]1(O2)C(OC)=CC(=O)C[C@H]1C [Compound 03, 4 Position Butyl Griseofulvin Derivative] | 19.1% | > 100 µg/mL | 7.41% | > 100 µg/mL | 31.8% | > 100 µg/mL | 68.4% | > 25 µg/mL | 29.1% | > 100 µg/mL | 26.9% | > 100 µg/mL | 62.3% | > 25 µg/mL
